In test [1] the test system is reactive oxygen species (ROS) in HGEPp cells. The note with it: H2O2-treated cells, 0.3 mM for 4 h.
Excerpt: 2. measure the effect of recrystallized oltipraz amd formulated oltipraz on hydroxyl, peroxyl and other reactive oxygen species within HGEPp cells, using Cell Biolabs' OxiSelect™ Intracellular ROS Assay Kit. This assay employs the cell-permeable fluorogenic probe 2′,7′-dichlorodihydrofluorescein diacetate (DCFH-DA) which diffuses into cells and is deacetylated by cellular esterases to a nonfluorescent DCFH which is then rapidly oxidized to highly fluorescent 2′,7′-dichlorodihydrofluorescein (DCF) by ROS.
Pooled primary HGEPps were propagated in CnT-Prime epithelial culture medium provided by CellnTec on 100 mm petri dishes coated with 30 mg/ml Type I rat tail collagen (BD Biosciences) diluted in Dulbecco's phosphate-buffered saline (DPBS). […] The cells were harvested when they reached 70-90% confluency as observed by light microscopy. For routine cultivation, the medium was changed every 3 days. […]
Oxidative Stress Measurement ROS Assay (OxiSelect Kit) • 1. […] Once the HGEPp cells were cultured and ready on a microplate, the media was removed from all the wells and discarded. […] Fluorescence was read on a Fluorescence Plate Reader after 1 hour. […] Transferred 150 μL of the mixture to a fresh 24-well plate for fluorescence measurements at 530 nm. […]
Intracellular ROS was measured using a Spectramax M3 microplate reader.
Test [2] has as its system primary human gingival epithelial cells (HGEPp). In words: cells. The settings on record: Epithelial cell, 4 h, read-out: IC50 of H2O2 in HGEPp cells.
Description: Pooled primary HGEPps were propagated in CnT-Prime epithelial culture medium provided by CellnTec on 100 mm petri dishes coated with 30 mg/ml Type I rat tail collagen (BD Biosciences) diluted in Dulbecco's phosphate-buffered saline (DPBS). […] The cells were harvested when they reached 70-90% confluency as observed by light microscopy. For routine cultivation, the medium was changed every 3 days. For both the cell viability and ROS assays, the cells from passages 3-7 were seeded at 5×0 3, 2.5×10 4, 5×0 4 cells/cm 2 density to grow cell monolayers in 24-well flat-bottomed tissue culture plates and acclimated overnight at 37° C. […]
Cell Survival Assay (TACS MTT Kit) • 1. Plate cell concentration was selected to be 6.25×10^5/ml to yield an OD absorbance within the linear portion of the control curve. • 2. Once the HGEPp cells were cultured and ready on the microplate, the media was removed from all the wells and discarded. […] Removed the plate cover and measured the absorbance of the wells, including the blanks at 570 nm. • 8. Determined the average values from triplicate readings after subtracting the average value for the blanks.
HGEPp cells were exposed to different concentrations of H2O2 for 4 h to examine H2O2-induced oxidative stress. The cells were exposed to 0-0.6 mM H2O2 for 4 h and cell viability was evaluated using the TACS MTT Cell Proliferation Assay Kit. […]

For orientation: IC50 means the concentration at which inhibition is half-maximal. For the molecule `OO` [Sample H2O2, hydrogen peroxide], the “ROS levels compared to normal control cells (100%)” value in test [1] is given as 128%. For the same molecule, the IC50 in test [2] amounted to 300 µM.

The record behind these values is US11185544B2, “Formulations of 4-methyl-5-(pyrazin-2-yl)-3H-l,2-dithiole-3-thione, taste-modified formulations, and methods of making and using same” (ST IP Holding AG, priority 2016, dated 2021).
